According to patent US20210347823A1, “METHODS OF PHYSICOCHEMICAL-GUIDED PEPTIDE DESIGN AND NOVEL PEPTIDES DERIVED THEREFROM” (Massachusetts Institute of Technology, priority 2018, published 2021):

Experiments:
[1] = test system: Gram-positive bacteria, Gram-negative bacteria and fungi (twelve different strains); assay: Liquid growth inhibition MIC against larger panel of microorganisms (MIC average); type: cell-based; details: for MIC Average: average of MIC over twelve different strains; for antimicrobial activity: second-generation analogs, larger panel
Text: FIGS. 5A-5D. Antimicrobial activity of second-generation library of synthetic peptides. FIG. 5A. In vitro activity of Pol-CP—NH2 and second generation of analogs against Gram-positive bacteria (Micrococcus luteus, Staphylococcus aureus, Staphylococcus epidermidis and Bacillus megaterium), Funghi (Candida albicans and Candida tropicalis) and Gram-negative bacteria (Escherichia coli, Enterobacter cloacae and Serratia marcescens). Experiments performed in triplicates. FIG. 5B. MIC (μmol L^−1) average vs fH in TFE/Water solution. FIG. 5C. Graph correlating MIC (μmol L^−1) averages vs H and (FIG. 5D) MIC (μmol L^−1) averages vs μH, where dots above the dashed line represent peptides with lower activity and dots below the dashed line show peptides with higher activity compared to the wild-type, in which one can observe ranges of optimal activity in determined intervals of H and μH values.
Microorganisms. The following strains were used: Micrococcus luteus A270, Staphylococcus aureus ATCC29213, Staphylococcus epidermidis ATCC12228, Bacillus megaterium ATCC10778 Escherichia coli SBS 363, Enterobacter cloacae ®-12, Serratia marcescens ATCC4112, Candida albicans MDM8, Candida tropicalis IOC4560 from Instituto Butanta, Sao Paulo, Brazil, and Escherichia coli BL21, Pseudomonas aeruginosa PA14, Pseudomonas aeruginosa PA01 and Staphylococcus aureus ATCC12600 from Synthetic Biology Group at MIT.
MIC assays. The MIC assays were performed using the broth microdilution method (Wiegand I. et al., Protoc. 3, 163-175 (2008); de la Fuente-Núñez C. et al., Antimicrob. Agents Chemother. 56, 2696-2704 (2012)) in sterile 96-well polypropylene microtiter plates. Peptides were added to the plate as solutions in BM2 minimal medium in concentrations ranging from 0 to 128 ? mol L^−1, and the bacteria were inoculated at a final concentration of 5×10^5 CFU mL^−1 per well. The plates were incubated at 37° C. for 24 h. The MIC was defined as the lowest concentration of compound at which no growth was observed. Additional liquid growth inhibition assays were done in Peptone Broth (PB, 0.5% NaCl, 1% Peptone at pH 7.4) and Potato Dextrose Broth (Invitrogen) were used for antibacterial and antifungal assays, respectively. Briefly, bacteria or fungi were incubated with serial dilutions of polybia-CP and analogs (50-0.09 μmol L^−1) in a 96-well microplate at 37° C. The microbial growth was assessed by measurements in a model 354 Multiskan Ascent microplate reader at A595nm, after 18 and 24 h (bacteria and fungi, respectively) incubation on a model 347CD FANEM incubator. MIC was defined as the minimal inhibitory concentration that prevents 100% of the bacterial growth. All assays were done in triplicate.

[2] = test system: Escherichia coli strain BL21; assay: MIC assay (broth microdilution) against E. coli BL21; type: cell-based; details: E. coli BL21, 24 h, 37° C.
Text: (§1) FIGS. 2A-2E. Design, physicochemical features and activity of Pol-CP—NH2 and Ala-scan analogs. FIG. 2A. Theoretical physicochemical properties of interest of the wild type and Ala-scan analogs, where H denotes hydrophobicity, μH is the hydrophobic moment, q represents the net charge and P/N is the ratio of polar/non-polar residues in the sequence. Top to bottom, left to right the sequences correspond to SEQ ID NOs: 1-13. FIG. 2B. Schematic of the in vitro biological activity experimental design. Briefly, 10^4 bacterial cells and serially diluted peptides (0-128 μmol L^−1) were added to a 96-well plate and incubated at 37° C. One day after the exposure, the solution in each well was measured in a microplate reader (600 nm) to check inhibition of bacteria compared to the untreated controls and presented as heat maps of antimicrobial activities (μmol L^−1) against four bacteria strains: E. coli strain BL21, S. aureus strain ATCC12600 and P. aeruginosa strains PA01, and PA14. Assays were performed in triplicates. FIG. 2C. Graph correlating MIC (μmol L^−1) averages vs H and (FIG. 2D) MIC (μmol L^−1) averages vs μH, where dots […] the dashed line show peptides with higher activity compared to the wild type, in which one can observe ranges of optimal activity in determined intervals of H and μH values. FIG. 2E. […]

P. aeruginosa = assay: MIC against P. aeruginosa (strain not given); type: cell-based, Pseudomonas aeruginosa
Text: as §1

Row | Substance | MIC Average [1] | MIC [2] | MIC against P. aeruginosa (P. aeruginosa; strain not stated) | antimicrobial activity ([1]; listed as [Lys]'-Pol-CP—NH2) | antimicrobial activity ([1]; listed as [Lys]^7-Pol-CP—NH2) | activity against P. aeruginosa (P. aeruginosa; in vitro, selection of peptides for the mouse model)
1 | H-ILGTILGLLKSL-NH2 [WT, ILGTILGLLKSL-NH2, reference compound] | 16.2 µM | 8.0 µM | 64 µM | – | – | –
2 | H-ILGTILKLLKSL-NH2 [Peptide 16, ILGTILKLLKSL-NH2] | 1.4 µM | – | – | impacted favorably both structure and antimicrobial activity | most active | high activity
